These results are taken from paper PMC5808195 (Frontiers in Pharmacology, 2018).

Counter-ions that a name gives are not always drawn. Like-named read-outs stand apart in the source and are kept apart here.

The target of experiment [1] is T1, rat cerebral neuronal membranes (histamine H1 binding sites) (Rattus norvegicus, UniProt P31390).
T1 construct: native receptors contained in rat cerebral neuronal membranes; from tissue; host or cells: cerebral tissue of male Wistar rats, membrane fraction (40,000 x g pellet)
Put plainly: Competitive displacement of [^3H]pyrilamine binding, rat cerebral neuronal membranes. The following applies: for displacement of specific [^3H]pyrilamine binding (in words): rat cerebral neuronal membranes, 20 nM [^3H]pyrilamine.

For experiment [2], the target named is T2, synthesized WT-HRH1 proteoglycerosomes (Homo sapiens, UniProt P35367).
Text: (§1) Eight different concentrations of each cold competitor were used in the competitive binding studies. […] The data are based on experiments performed in triplicate. The experimental conditions were the same as those used in the saturation studies.
For experiment [3], the target named is T2, synthesized WT-HRH1 proteoglycerosomes. The experiment can be described thus: biochemical.
Text: as §1

T1 sequence (P31390 whole entry): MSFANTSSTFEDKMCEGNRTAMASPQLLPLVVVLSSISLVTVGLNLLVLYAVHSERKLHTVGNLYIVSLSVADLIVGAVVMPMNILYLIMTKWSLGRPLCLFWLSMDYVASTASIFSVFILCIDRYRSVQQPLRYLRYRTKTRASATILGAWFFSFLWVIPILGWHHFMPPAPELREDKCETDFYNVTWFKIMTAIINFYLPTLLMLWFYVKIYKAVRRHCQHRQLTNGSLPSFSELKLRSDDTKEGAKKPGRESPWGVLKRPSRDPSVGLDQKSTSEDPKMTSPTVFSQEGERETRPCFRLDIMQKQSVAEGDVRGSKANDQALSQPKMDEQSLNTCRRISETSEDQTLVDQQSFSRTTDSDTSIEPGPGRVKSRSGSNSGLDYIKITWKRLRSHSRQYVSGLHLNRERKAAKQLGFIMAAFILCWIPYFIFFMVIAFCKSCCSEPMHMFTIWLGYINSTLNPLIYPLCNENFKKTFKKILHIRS
T2 sequence (P35367 whole entry): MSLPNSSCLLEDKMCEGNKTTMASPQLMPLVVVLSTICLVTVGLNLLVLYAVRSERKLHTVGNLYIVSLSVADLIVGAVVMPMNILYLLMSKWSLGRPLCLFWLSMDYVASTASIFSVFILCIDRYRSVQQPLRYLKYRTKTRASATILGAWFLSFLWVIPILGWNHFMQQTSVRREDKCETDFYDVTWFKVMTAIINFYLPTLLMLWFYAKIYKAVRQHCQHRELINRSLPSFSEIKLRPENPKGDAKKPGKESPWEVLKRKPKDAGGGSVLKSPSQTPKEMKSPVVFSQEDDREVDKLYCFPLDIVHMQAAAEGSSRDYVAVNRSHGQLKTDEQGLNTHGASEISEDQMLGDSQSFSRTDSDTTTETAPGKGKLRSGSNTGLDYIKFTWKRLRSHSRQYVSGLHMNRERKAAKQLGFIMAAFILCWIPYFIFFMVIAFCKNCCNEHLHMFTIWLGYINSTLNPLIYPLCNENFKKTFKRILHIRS

Consider `NC1=NCC2c3ccccc3Cc3ccccc3N12` (centres unmarked) [Epinastine, epinastine hydrochloride], for which the Ki (as a rule, a measure of affinity in units of concentration, obtained from inhibition or displacement) came out at 0.288 ± 0.0615 nM in experiment [1] and 0.332 ± 0.0989 nM in experiment [3]. In addition, the “displacement of specific [^3H]pyrilamine binding (in words)” value (“displacement of specific” for short) is “concentration-dependent inhibition” in experiment [1] and “concentration-dependent inhibition” in experiment [2] (synthesized receptors, 20 nM [^3H]pyrilamine).
On to `C[C@@H](N)Cc1cnc[nH]1` [alpha methylhistamine, alpha-methylhistamine], for which the “displacement of specific” value in experiment [1] and in experiment [2] was “did not inhibit” each time.
Turning to `S=C(NC1CCCCC1)N1CCC(c2cnc[nH]2)CC1` [thioperamide], the “displacement of specific” value in experiment [1] and in experiment [2] was “no displacement ability” throughout.
